# Data as given in patent publication US20240197760A1, “ACTIVATORS OF INTEGRATED STRESS RESPONSE PATHWAY FOR PROTECTION AGAINST FERROPTOSIS” (Burke Neurological Institute, priority 2021, published 2024).
# Key:
# [1] = tested on: hippocampal slices; test: Long term potentiation (fEPSP) in submerged hippocampal slices; parameters: species or system mouse; details: 10 mM for 6 h in ACSF
# Description: Brains were quickly removed from mice sacrificed by cervical dislocation and placed in cold artificial cerebrospinal fluid (ACSF) (bubbled with 95% O2/5% CO2) containing (in mM): 124 NaCl, 4 KCl, 1 Na2HPO4, 25 NaHCO3, 2 CaCl2, 2 MgCl2, and 10 glucose. The pH and osmolarity of the solution were 7.4 and 310 mOsm/L, respectively. The hippocampus was isolated and placed on a mechanical tissue chopper to produce transverse hippocampal slices of 400 μm thickness. […] Hippocampal slices were allowed to recover for at least 90 min prior to beginning the experiment. For recordings, glass electrodes were filled with ACSF and positioned in the CA1 stratum radiatum to record fEPSPs evoked by local stimulation (0.1 ms) of Schaffer collateral fibers using a bipolar concentric electrode placed laterally to the recording electrode (˜150 μm). For LTP recordings, the voltage intensity of the stimulation test pulse (square pulse, 100 us duration) for each slice was determined to be the voltage intensity that had generated 30-40% of the maximum slope obtained using input-output relationships. Facilitation was calculated as the ratio of the slopes of the second and first fEPSPs, and plotted as a function of the inter-pulse duration. For LTP, a test pulse was applied every minute. […] Residual potentiation was calculated as the average of the last 15 min of 2 h of recordings.
# [2] = tested on: Bdnf; test: Bdnf gene expression in mouse brain cortex after intraperitoneal injection; assay type: in vivo
# [3] = tested on: Creb1, Bdnf, Rbbp4; test: Plasticity gene expression by quantitative real time PCR in mouse primary neurons; assay type: cell-based
# Description: Primary immature neuronal cultures were prepared from cerebral cortex of E14 embryos (day 14 of gestation) of CD1 mice under sterile conditions. Dissected cortices were incubated at 37° C. for 20 min in EBSS solution containing papain, L-cystine and EDTA, which was activated at 37 °C for 30 min and then was filtered through […] (Millipore, catalog number—SCGP00525). Cortices were then mechanically dissociated by trituration with glass pipettes. The rDNase was added in dissociated cells followed by incubation of these dissociated cells at 37 °C for 3 min. Thereafter, these cells were centrifuged at 2800 rpm for 5 min. Then supernatant was discarded, and cell were resuspended gently in a 5 ml mixture of EBSS and 10/10 solution (4:1 ratio). Then 5 ml of 10/10 solution was added gently on top and these resuspended cells were centrifuged at 2800 rpm for 10 min. Supernatant was again discarded and cells were resuspended in 10 ml MEM, Glutamax supplement (Thermo Fisher Scientific, Catalog number—41090036) containing 10% heat inactivated fetal bovine serum (Thermo Fisher Scientific, Catalog number—16140071), 5% heat inactivated horse serum (Thermo Fisher Scientific, Catalog number—26050088), and 1% penicillin/streptomycin (Thermo Fisher Scientific, Catalog number—15140122). Thereafter, resuspended cells were filtered through 70-micron cell strainer (Thomas Scientific, catalog number—4620F02) followed by their counting through Hemocytometer. Cells were, finally, plated at the density of 1 million cells/ml onto poly-D-Lysine (PDL; Sigma Aldrich, catalog number—P6407-10X5MG) coated pates and placed in CO2-buffered incubators at 37° C.
# Total RNA was extracted from primary cortical neurons using NucleoSpin RNA II Kit (Clontech, Catalog number—740955-250). Thereafter, using the Taqman RNA-to-Ct, one step kit (Thermo Fisher Scientific, catalog number—4392938) and following the manufacturer's instructions, […] from each sample was mixed with the Taqman® Gene Expression Master Mix and Taqman® Gene Expression Assays for Creb1 (Catalog number—Mm00501607_m1), Bdnf (Catalog number—Mm04230607_s1), Rbbp4 (Catalog number—Mm00771401_g1), Bip (Catalog number—Mm00517691_m1), Trib3 (Catalog number—Mm00454879_m1), and Chac1 (Catalog number—Mm00509926_m1) with FAM labelled probe and Actin with VIC labelled probe all from Thermo Fisher Scientific on an Applied Biosystems 7500 Fast Real Time PCR System. For assessing gene expression of various specific Bdnf exons in mouse primary neurons, two step qPCR was used. Total RNA from primary cortical neurons was extracted using NucleoSpin RNA II Kit (Clontech, Catalog number—740955-250) and a total of 1.5 μg RNA was used to synthesize cDNA with the SuperScript® III First-Strand Synthesis System (Thermo Fisher Scientific, Catalog number—18080051). Quantitative RT-PCR was then performed using SYBR green (Thermo Fisher Scientific, Catalog number—4309155) on an Applied Biosystems 7500 Fast Real Time PCR System. Quantitative levels for all genes were normalized to the housekeeping gene GAPDH and expressed relative to the relevant control samples as fold change. The sequences of primers used in this part of the study were as follows: Bdnf I forward: […] (SEQ ID NO:9) and Bdnf I reverse: […] (SEQ ID NO:10); Bdnf II forward: […] (SEQ ID NO:11) and Bdnf II reverse: […] (SEQ ID NO:12); Bdnf IV forward #2: […] (SEQ ID NO:13) and Bdnf IV reverse #2: […] (SEQ ID NO:14); Bdnf VI forward: […] (SEQ ID NO:15) and Bdnf VI reverse: […] (SEQ ID NO:16); Bdnf VII forward: […] (SEQ ID NO:17) and Bdnf VII reverse: […] (SEQ ID NO:18) Bdnf IX forward: […] (SEQ ID NO:19) and Bdnf IX reverse: […] (SEQ ID NO:20); Gapdh forward #2: […] (SEQ ID NO:21) and Gapdh reverse #2: […] (SEQ ID NO: 22).
# [4] = indicated by FDG PET studies; cited from earlier work
# [5] = tested on: triple transgenic model of AD; details: cited from earlier work
structure (smiles),measurement,setting,value
"OC[C@H]1OC(O)C[C@@H](O)[C@@H]1O (stereo partly drawn) [2-DG, (4R,5S,6R)-6-(hydroxymethyl)oxane-2,4,5-triol]",LTP in submerged hippocampal slices,[1],significant increase
same,Bdnf gene expression in mouse brain cortex,[2]; 10 mg/Kg intraperitoneal injection for 6 h,significant increase
same,driving the adaptive plasticity program,[2]; intraperitoneal injection at 10 mg/Kg,sufficient in driving the adaptive plasticity program
same,endogenous mRNA levels of six Bdnf transcript variants,"[3]; 10 mM, 6 h, mouse primary neurons",all transcript variants were upregulated
same,Creb1 and Bdnf gene expression with AMPK phosphorylation knocked down,"[3]; adenoviral dominant negative AMPK, increasing concentrations of 2-DG",did not block 2-DG led increase in Creb1 and Bdnf gene expression
same,Bdnf gene expression with dominant negative ATF4,"[3]; adenoviral dominant negative ATF4, 2-DG 6 h treatment",ATF4 knockdown blocked 2-DG led increase in Bdnf gene expression
same,plasticity gene program in depolarized primary neurons,"[3]; increasing concentration, co-treated with 25 mM KCl, 6 h",dose dependent increase in plasticity gene program
same,changes in Bdnf gene expression,"[3]; increasing concentrations 1-15 mM, primary cortical neurons",does dependent
same,"expression of plasticity genes Creb1, Bdnf and Rbbp4 (mRNA)","[3]; increasing concentrations, 6 h, mouse primary neurons",dose-dependent increase
same,crossing of the blood brain barrier,[4],can easily cross the blood brain barrier
same,brain energy metabolism and amyloid pathology,[5],improve brain energy metabolism and amyloid pathology
